Results taken from ChEMBL document CHEMBL3045104, “Synthesis and antibacterial activity of 4-benzoyl-1-(4-carboxy-phenyl)-5-phenyl-1H-pyrazole-3-carboxylic acid and derivatives” (2009).
≈ marks a conversion by molar mass, not a printed value. Calls of active or inactive are those of the source. The rule behind the calls is not given here.

How the values were obtained:
Assay type in all cases: functional
Streptococcus pyogenes = experiment: Antimicrobial activity against Streptococcus pyogenes ATCC 176 after overnight incubation by microdilution broth susceptibility assay
Proteus vulgaris = experiment: Antimicrobial activity against Proteus vulgaris Kuk. 1329 after overnight incubation by microdilution broth susceptibility assay
Salmonella enteritidis = experiment: Antimicrobial activity against Salmonella enterica subsp. enterica serovar Enteritidis ATCC 1376 after overnight incubation by microdilution broth susceptibility assay
Pseudomonas aeruginosa = experiment: Antimicrobial activity against Pseudomonas aeruginosa ATCC 9027 after overnight incubation by microdilution broth susceptibility assay
Escherichia coli = experiment: Antimicrobial activity against Escherichia coli B3704 after overnight incubation by microdilution broth susceptibility assay
Staphylococcus aureus = experiment: Antimicrobial activity against Staphylococcus aureus ATCC 29213 after overnight incubation by microdilution broth susceptibility assay
Bacillus subtilis = experiment: Antimicrobial activity against Bacillus subtilis ATCC 6633 after overnight incubation by microdilution broth susceptibility assay
Klebsiella pneumoniae = experiment: Antimicrobial activity against Klebsiella pneumoniae A137 after overnight incubation by microdilution broth susceptibility assay
Xanthomonas campestris = experiment: Antimicrobial activity against Xanthomonas campestris A235 after overnight incubation by microdilution broth susceptibility assay
Enterococcus faecalis = experiment: Antimicrobial activity against Enterococcus faecalis ATCC 29122 after overnight incubation by microdilution broth susceptibility assay

SMILES | MIC (Streptococcus pyogenes) | MIC (Proteus vulgaris) | MIC (Salmonella enteritidis) | MIC (Pseudomonas aeruginosa) | MIC (Escherichia coli) | MIC (Staphylococcus aureus) | MIC (Bacillus subtilis) | MIC (Klebsiella pneumoniae) | MIC (Xanthomonas campestris) | MIC (Enterococcus faecalis)
NC(=O)c1ccc(-n2nc(C(N)=O)c(C(=O)c3ccccc3)c2-c2ccccc2)cc1 | inactive | inactive | inactive | inactive | 156 µM (≈ 64 µg/mL) | inactive | inactive | 156 µM (≈ 64 µg/mL) | inactive | inactive
CC(C)OC(=O)c1ccc(-n2nc(C(=O)OC(C)C)c(C(=O)c3ccccc3)c2-c2ccccc2)cc1 | inactive | inactive | inactive | inactive | 129 µM (≈ 64.1 µg/mL) | inactive | 129 µM (≈ 64.1 µg/mL) | 129 µM (≈ 64.1 µg/mL) | 258 µM (≈ 128 µg/mL) | inactive
O=C(O)c1ccc(-n2nc(C(=O)O)c(C(=O)c3ccccc3)c2-c2ccccc2)cc1 | inactive | inactive | inactive | inactive | 155 µM (≈ 63.9 µg/mL) | 310 µM (≈ 128 µg/mL) | 310 µM (≈ 128 µg/mL) | 155 µM (≈ 63.9 µg/mL) | 78 µM (≈ 32.2 µg/mL) | inactive
CCNC(=O)c1ccc(-n2nc(C(=O)NCC)c(C(=O)c3ccccc3)c2-c2ccccc2)cc1 | inactive | inactive | inactive | inactive | 137 µM (≈ 63.9 µg/mL) | inactive | 274 µM (≈ 128 µg/mL) | 137 µM (≈ 63.9 µg/mL) | 274 µM (≈ 128 µg/mL) | inactive
O=C(O)c1ccc(-n2nc3c(=O)n(-c4ccc(C(=O)O)cc4)nc(-c4ccccc4)c3c2-c2ccccc2)cc1 | inactive | inactive | inactive | 242 µM (≈ 128 µg/mL) | 121 µM (≈ 64 µg/mL) | inactive | 242 µM (≈ 128 µg/mL) | 121 µM (≈ 64 µg/mL) | inactive | inactive
O=C(O)c1ccc(N/N=C(\c2ccccc2)c2c(-c3ccccc3)nn(-c3ccc(C(=O)O)cc3)c(=O)c2O)cc1 | inactive | inactive | inactive | inactive | 117 µM (≈ 63.9 µg/mL) | inactive | inactive | 117 µM (≈ 63.9 µg/mL) | inactive | inactive
CCCCCNC(=O)c1ccc(-n2nc(C(=O)NCCCCC)c(C(=O)c3ccccc3)c2-c2ccccc2)cc1 | inactive | inactive | inactive | inactive | 116 µM (≈ 63.9 µg/mL) | inactive | 232 µM (≈ 128 µg/mL) | 116 µM (≈ 63.9 µg/mL) | inactive | inactive
O=C(N[C@H](CO)[C@H](O)c1ccc([N+](=O)[O-])cc1)C(Cl)Cl [CHLORAMPHENICOL] | 37 µM (≈ 12 µg/mL) | 74 µM (≈ 23.9 µg/mL) | 74 µM (≈ 23.9 µg/mL) | 74 µM (≈ 23.9 µg/mL) | 19 µM (≈ 6.14 µg/mL) | 19 µM (≈ 6.14 µg/mL) | 74 µM (≈ 23.9 µg/mL) | 37 µM (≈ 12 µg/mL) | 37 µM (≈ 12 µg/mL) | 37 µM (≈ 12 µg/mL)
CCOC(=O)c1ccc(-n2nc(C(=O)OCC)c(C(=O)c3ccccc3)c2-c2ccccc2)cc1 | inactive | inactive | inactive | inactive | 137 µM (≈ 64.2 µg/mL) | inactive | 137 µM (≈ 64.2 µg/mL) | 137 µM (≈ 64.2 µg/mL) | inactive | inactive
N#Cc1ccc(-n2nc(C#N)c(C(=O)c3ccccc3)c2-c2ccccc2)cc1 | inactive | inactive | inactive | inactive | 171 µM (≈ 64 µg/mL) | inactive | 171 µM (≈ 64 µg/mL) | 171 µM (≈ 64 µg/mL) | 342 µM (≈ 128 µg/mL) | inactive
CCCCOC(=O)c1ccc(-n2nc(C(=O)OCCCC)c(C(=O)c3ccccc3)c2-c2ccccc2)cc1 | inactive | inactive | inactive | inactive | 122 µM (≈ 64 µg/mL) | inactive | 122 µM (≈ 64 µg/mL) | 122 µM (≈ 64 µg/mL) | 244 µM (≈ 128 µg/mL) | inactive
O=C(O)c1ccc(-n2nc3c(=O)n(-c4ccccc4)nc(-c4ccccc4)c3c2-c2ccccc2)cc1 | inactive | inactive | inactive | 132 µM (≈ 64 µg/mL) | 132 µM (≈ 64 µg/mL) | inactive | 264 µM (≈ 128 µg/mL) | 132 µM (≈ 64 µg/mL) | 264 µM (≈ 128 µg/mL) | inactive
Cn1nc(-c2ccccc2)c2c(-c3ccccc3)n(-c3ccc(C(=O)O)cc3)nc2c1=O | inactive | inactive | inactive | 303 µM (≈ 128 µg/mL) | 152 µM (≈ 64.2 µg/mL) | inactive | 303 µM (≈ 128 µg/mL) | 152 µM (≈ 64.2 µg/mL) | 303 µM (≈ 128 µg/mL) | inactive
O=C(Cl)c1ccc(-n2nc(C(=O)Cl)c(C(=O)c3ccccc3)c2-c2ccccc2)cc1 | inactive | inactive | inactive | inactive | 142 µM (≈ 63.8 µg/mL) | inactive | inactive | 142 µM (≈ 63.8 µg/mL) | 285 µM (≈ 128 µg/mL) | inactive
O=C(NCc1ccccc1)NC(=O)c1ccc(-n2nc(C(=O)NC(=O)NCc3ccccc3)c(C(=O)c3ccccc3)c2-c2ccccc2)cc1 | inactive | inactive | inactive | inactive | 95 µM (≈ 64.3 µg/mL) | inactive | 189 µM (≈ 128 µg/mL) | 95 µM (≈ 64.3 µg/mL) | inactive | inactive
CCN(CC)C(=O)c1ccc(-n2nc(C(=O)N(CC)CC)c(C(=O)c3ccccc3)c2-c2ccccc2)cc1 | inactive | inactive | inactive | inactive | 123 µM (≈ 64.3 µg/mL) | inactive | 245 µM (≈ 128 µg/mL) | 123 µM (≈ 64.3 µg/mL) | 245 µM (≈ 128 µg/mL) | inactive
CNC(=O)NC(=O)c1ccc(-n2nc(C(=O)NC(=O)NC)c(C(=O)c3ccccc3)c2-c2ccccc2)cc1 | inactive | inactive | inactive | inactive | 122 µM (≈ 64 µg/mL) | inactive | 244 µM (≈ 128 µg/mL) | 122 µM (≈ 64 µg/mL) | inactive | inactive
O=C(O)c1ccc(-n2nc3c(=O)[nH]nc(-c4ccccc4)c3c2-c2ccccc2)cc1 | inactive | 157 µM (≈ 64.1 µg/mL) | inactive | 157 µM (≈ 64.1 µg/mL) | 157 µM (≈ 64.1 µg/mL) | inactive | 313 µM (≈ 128 µg/mL) | 157 µM (≈ 64.1 µg/mL) | 313 µM (≈ 128 µg/mL) | inactive
COC(=O)c1ccc(-n2nc(C(=O)OC)c(C(=O)c3ccccc3)c2-c2ccccc2)cc1 | inactive | inactive | inactive | inactive | 145 µM (≈ 63.9 µg/mL) | inactive | 290 µM (≈ 128 µg/mL) | 145 µM (≈ 63.9 µg/mL) | inactive | inactive
O=C(NC(=O)c1ccc(-n2nc(C(=O)NC(=O)Nc3ccccc3)c(C(=O)c3ccccc3)c2-c2ccccc2)cc1)Nc1ccccc1 | inactive | inactive | inactive | inactive | 99 µM (≈ 64.2 µg/mL) | inactive | 197 µM (≈ 128 µg/mL) | 99 µM (≈ 64.2 µg/mL) | inactive | inactive
